Assay results taken from US20080063601A1, “Compositions and methods relating to polycystic kidney disease” (priority 2004, published 2008).

How the values were obtained:
NFκB transactivation = test: κB-luciferase reporter assay of TNF-α induced NFκB transactivation in HeLa cells; assay type: cell-based
Method: Having established that triptolide induced cell death is dependent upon free calcium concentration, Applicant next determined whether this was also a requirement for the inhibition of NFκB transcription. HeLa cells were transiently transfected with the κB-luciferase reporter construct for 8 hours before being washed and then cultured in the presence or absence of calcium containing medium for 16 hours. Triptolide (100 nM) was pre-incubated with cells for 1 hour before addition of 15 ng/ml of TNF-α for 4 hours.
As an additional experiment, transcriptional activity was also assessed by site-directed calcium buffering. HeLa cells were co-transfected with the κB-luciferase plasmid as well as one of the following constructs: GFP empty vector, NES-PV-GFP, or NLS-PV-GFP and proper GFP localization was confirmed. […]
NFκB transactivation was examined using the κB-luciferase reporter construct. […] Cells were assessed for NFκB driven luciferase expression after an additional five hours of incubation, at which time TNF-α had induced transcriptional activity by approximately 15-fold in control cells. […] The results thus far support a divergence of triptolide-mediated functions: the pathway regulating growth arrest/death is more sensitive to triptolide and calcium than the mechanism leading to transcriptional repression of NFκB.
A triple κB promoter-Luciferase reporter construct was a gift of Sankar Ghosh (Yale University). […] The transfection efficiency of HeLa was determined to be 80-90%, and all samples were normalized to protein concentration. Luciferase assays were performed using the Firefly luciferase kit as per manufacturer's protocol (Promega) and results obtained on the Wallac Victor2 1420 Multilabel Counter (Perkin Elmer).

HeLa cells [1] = test: [3H]-triptolide competition binding in intact HeLa cells; conditions: for displacement of / competition for [3H]-triptolide binding: 1 or 10 μM unlabeled competitor for 1 h before approx. 30 nM [3H]-triptolide for 1 h
Method: To gain insight into triptolide's mechanism of action Applicant sought to determine its specific binding activity utilizing a system employing [^3H]-triptolide. In addition to competition with 1 μM or 10 μM unlabeled triptolide, Applicant also measured the binding affinities of triptolide analogs (FIG. 3A). These analogs have been previously described and differ structurally from triptolide in the hydrolysis of the 12,13 epoxide (2), and formation of the ketone at the C-14 hydroxyl (3) (FIG. 3A). […] The effective interaction of these analogs with a presumed triptolide binding entity led us to their use in subsequent experiments addressing the mode of triptolide's biological functions.
Labeling studies were performed by the addition of approximately 30 nM [^3H]-triptolide directly into the culture media for one hour at 37° C. For cold competition studies, 1 μM triptolide was incubated with the cells for one hour before or after the addition of [^3H]-triptolide. Triptolide analog studies followed a similar protocol where concentrations used for competition were either 1 or 10 μM added before [^3H]-triptolide. Medium was removed and cells were washed 3× in cold PBS. Total cell lysates were prepared (150 mM NaCl, 50 mM Tris-HCl pH 7.4, 1 mM EDTA, 1% Triton X-100, and Complete™ protease inhibitors (Roche)) and protein was quantitated before measuring the [^3H]-triptolide binding activity via liquid scintillation.

HeLa cells [2] = test: HeLa cell viability by trypan blue dye exclusion; assay type: cell-based
Method: Since extracellular calcium concentration can influence triptolide binding Applicant sought to determine if the presence of calcium influences the rate of triptolide-mediated apoptosis. To first establish the growth rate of HeLa in media±calcium, cell counts were performed over a 72 hour time course. Although calcium-free media caused cells to detach more easily, the overall growth rates were similar where cell doubling occurred every 24 hours on average (FIG. 5B). For triptolide experiments, cells were initially equilibrated in medium±calcium for 16 hours before the addition of 100 nM triptolide. Cell death was assessed by trypan blue dye exclusion at 24, 48, and 72 hours post drug treatment. In the presence of calcium-containing medium, triptolide induced at least 50% cell death by 24 hours with this trend continuing through later time points (FIG. 5C).
Applicant's results have implicated reversible binding of triptolide to a potential binding protein or complex that can be regulated by calcium. To understand if triptolide function is further separable between cell death and NFκB inhibition, Applicant examined the effect of concentration on these two endpoints. HeLa cells were cultured in the presence of 0, 10, 25, 50, or 100 nM of triptolide and separately assessed for cell death or the ability to suppress NFκB transactivation promoted by TNF-α. Following 24-48 hours of culture, viable cells were recovered and counted. Following 24 hours, triptolide concentrations from 25-100 nM caused greater than 50% of the cells to undergo cell death as assessed by detachment, clumping and the failure to exclude trypan blue dye. […] This is consistent with previous studies showing that low doses of triptolide cause cell cycle arrest rather than apoptosis (Kiviharju, et al., 2002, Clin Cancer Res 8, 2666-2674).
Based upon Applicant's studies examining the concentration dependent effect of triptolide on the two measured biological endpoints, cell death and transcriptional repression, Applicant wanted to determine how modulating triptolide's structure may also discriminate between the two pathways. For cell viability assays, HeLa cells were incubated with 0, 0.1, 1, or 10 μM of each analog or triptolide for 24 hours and then counted using trypan blue dye exclusion. […] NFκB transcriptional inhibition was measured using the κB-luciferase assay as previously described following 5 hours of incubation with each analog (0-10 μM) and TNF-α addition.
HeLa cells were incubated in DMEM or SMEM (Gibco) media+10% FBS and maintained at 37° C. in 5% CO2 for all experiments. HeLa cell viability was assessed by trypan blue dye exclusion, as well as by morphological examination (non-viable cells were rounded and detached from culture plate).

**Q.** CC(C)C1(O)C(O)C2OC23C2(C)CCC4=C(COC4=O)C2CC2OC23C1O (stereo not shown) [analog (2), Triol-Triptolide] was tested. Which “effect on NFκB transcriptional activity” value (NFκB transactivation; 1 μM, 5 hours with TNF-α) did it give?
**A.** no effect

**Q.** What about the “displacement of / competition for [3H]-triptolide binding” value (HeLa cells [1]) of the same molecule?
**A.** efficiently competes

**Q.** And the “cell viability versus untreated control” value (HeLa cells [2]; 0.1 μM, 24 hours)?
**A.** not different from the untreated control

**Q.** What about the “effect on continued cell growth” value (HeLa cells [2]; 0.1 μM, out to 72 hours) of the same molecule?
**A.** overall growth suppressive effect

**Q.** What about the cell death (HeLa cells [2]; 1 μM, 24 hours) of the same molecule?
**A.** greater than 50%

**Q.** Which “profile of transcriptional repression (NFκB) compared with triptolide” value (NFκB transactivation; 0.1-10 μM, 5 hours) does the source give for CC(C)[C@]12O[C@H]1[C@@H]1O[C@@]13[C@@]1(C)CCC4=C(COC4=O)[C@@H]1C[C@@H]1O[C@@]13C2=O [analog (3), Triptonide] here?
**A.** mimicked triptolide with no significant difference

**Q.** What about the “competitive ability for [3H]-triptolide binding compared with triptolide” value (HeLa cells [1]; 1 μM competitor) of the same molecule?
**A.** higher competitive ability than triptolide itself

**Q.** And the “displacement of / competition for [3H]-triptolide binding” value (HeLa cells [1])?
**A.** near complete

**Q.** What about the “effect on cells at low concentration” value (HeLa cells [2]; 25 nM) of the same molecule?
**A.** only a growth suppressive effect

**Q.** And the “profile of cell death compared with triptolide” value (HeLa cells [2]; 0.1-10 μM, 24 hours)?
**A.** mimicked triptolide with no significant difference
